“And” between values parts separate entries of the source, which are not always exact repeats. Identical values can stand only once. Square brackets hold non-standard residues; d marks the D form. Ends that are not written are not given here.
Each substance was assayed on TLR4 (assay: LPS-induced TNFα in primary human PBMC, ELISA). Details: peptide 1, 5 or 25 μM 1 h before 10 ng/ml LPS, 6 h.
TLR4, sequence (O00206 24-839): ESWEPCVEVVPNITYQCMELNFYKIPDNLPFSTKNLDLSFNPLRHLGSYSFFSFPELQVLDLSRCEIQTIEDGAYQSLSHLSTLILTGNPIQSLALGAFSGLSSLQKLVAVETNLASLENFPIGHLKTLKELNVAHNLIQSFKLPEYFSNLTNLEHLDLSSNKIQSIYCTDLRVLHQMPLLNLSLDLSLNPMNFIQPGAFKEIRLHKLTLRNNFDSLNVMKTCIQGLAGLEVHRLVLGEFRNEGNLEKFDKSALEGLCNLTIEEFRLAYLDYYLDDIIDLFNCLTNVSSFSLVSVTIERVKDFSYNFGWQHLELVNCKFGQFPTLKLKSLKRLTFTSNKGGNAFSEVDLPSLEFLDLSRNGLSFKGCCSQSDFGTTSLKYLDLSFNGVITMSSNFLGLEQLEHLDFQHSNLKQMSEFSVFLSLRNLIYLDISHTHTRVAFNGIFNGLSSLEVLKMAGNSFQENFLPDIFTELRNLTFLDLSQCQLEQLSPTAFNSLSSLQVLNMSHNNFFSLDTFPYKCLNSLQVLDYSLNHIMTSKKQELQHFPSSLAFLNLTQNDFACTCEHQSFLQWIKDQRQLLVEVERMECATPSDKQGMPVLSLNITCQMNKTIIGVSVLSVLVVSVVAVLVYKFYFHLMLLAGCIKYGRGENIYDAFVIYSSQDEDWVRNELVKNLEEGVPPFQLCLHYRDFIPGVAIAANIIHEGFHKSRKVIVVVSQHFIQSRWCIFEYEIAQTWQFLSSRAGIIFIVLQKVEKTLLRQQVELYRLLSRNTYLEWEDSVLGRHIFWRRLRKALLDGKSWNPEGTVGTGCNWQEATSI
TLR4, sequence (Q9Y6Y9 17-160 partner limits assumed): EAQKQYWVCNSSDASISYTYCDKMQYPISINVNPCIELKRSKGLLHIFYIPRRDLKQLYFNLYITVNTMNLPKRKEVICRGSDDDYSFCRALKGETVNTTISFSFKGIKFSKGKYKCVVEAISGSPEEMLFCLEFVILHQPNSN
Assay type: cell-based
Description: FIGS. 13A and B are bar charts showing the effect of A467 and A464 on LPS-induced TNFα production and on cell viability in primary human cells. Peripheral blood mononuclear cells (PBMCs) were seeded in 96 well plates (1 ×10^6 cells/ml) 24 hours before treatment. A467 (SEQ ID NO. 23) and A464 (SEQ ID NO. 20) were added to the cells at 1, 5 and 25 μM 1 hour before stimulating with 10 ng/ml LPS. The peptides were added into the unstimulated control wells at 25 μM. Supernatants were collected 6 hours after stimulation and assayed for TNFα production by ELISA (A). The cells were assayed for viability by the MTT assay (B). No peptides were added to the control wells (black bars). Data is representative of at least three experiments each performed in triplicate and is expressed as mean±s.d;
FIGS. 14A and B are bar charts showing the comparison of the inhibitory effect of the L- and D-forms of A464 on LPS-induced TNFα in primary human and murine cells. PBMC (1×10^6 cells/ml, (A)) or immortalised murine macrophages (1.5×10^5 cells/ml, (B)) were seeded in 96 well plates 24 hours before treatment. L-form and D-form A464 peptides (with the 9R delivery peptide on the C-terminus, SEQ ID NO. 20) were added to the cells at a concentration of 1, 5 or 25 μM 1 hour before stimulating with 10 ng/ml LPS. Supernatants were collected 6 hours after stimulation and assayed for either human (A) or murine (B) TNFα production by ELISA. No peptides were added to the control wells (black bars). Data is representative of at least three experiments each performed in triplicate and is expressed as mean±s.d;
FIGS. 15A and B are bar charts showing the effect of the D-form A464 peptide with the TAT delivery sequence on LPS induced TNFα in primary human and murine cells. PBMC (A) and immortalised murine macrophages (B) were seeded in 96 well plates 24 hours before treatment. D-form of A467 (SEQ ID NO. 37) and A464 (SEQ ID NO. 36) with the TAT delivery sequence were added to the cells at a concentration of 1, 5 or 25 μM 1 hour before stimulating with 10 ng/ml LPS. The peptides were added into the unstimulated control wells at 25 μM. Supernatants were collected 6 hours after stimulation and assayed for either human (A) or murine (B) TNFα production by ELISA. No peptides were added to the control wells (black bars). Data is representative of at least three experiments each performed in triplicate and is expressed as mean±s.d;
FIGS. 16A and B are bar charts showing the effect of attaching 9R to the N-terminus of A464 on LPS-induced TNFα in primary human and murine cells. Immortalised murine macrophages (A) and PBMC (B) were seeded in 96 well plates 24 hours before treatment. L-form of A467 (SEQ ID NO. 39) and A464 (SEQ ID NO. 38) with the 9R-delivery sequence at the N-terminus were added to the cells at a concentration of 1, 5 or 25 μM 1 hour before stimulating with 10 ng/ml LPS. The peptides were added into the unstimulated control wells at […]. Supernatants were collected 6 hours after stimulation and assayed for either murine (A) or human (B) TNFα production by ELISA. No peptides were added to the control wells (black bars). Data is representative of at least three experiments each performed in triplicate and is expressed as mean±s.d;
FIGS. 17A and B are bar charts showing the effect of the D-form A464 with 9R at the N-terminus on LPS-induced TNFα in primary human and murine cells. Immortalised murine macrophages (A) and PBMC (B) were seeded in 96 well plates 24 hours before treatment. D-form of A467 (SEQ ID NO. 39) and A464 (SEQ ID NO. 38) peptides with the 9R-delivery sequence at N-terminus were added to the cells at a concentration of 1, 5 or 25 μM 1 hour before stimulating with 10 ng/ml LPS. The peptides were added into the unstimulated control wells at 25 μM. Supernatants were collected 6 hours after stimulation and assayed for either murine (A) or human (B) TNFα production by ELISA. No peptides were added to the control wells (black bars). […]
For “9RN-A464 (RRRRRRRRRKYSFKLILAEY) [Peptide 9RN-A464]”, the “inhibition of LPS-induced hTNFα production” value (from here on “inhibition”) was “inhibition was only observed from 5-25 μM”.
With “D-9RN-A464 ([dR][dR][dR][dR][dR][dR][dR][dR][dR][dK][dY][dS][dF][dK][dL][dI][dL][dA][dE][dY]) [Peptide D-9RN-A464]” the “inhibition” value was “inhibited TNFα only at concentration of 24 μM”.
With KYSFKLILAEYRRRRRRRRR [Peptide A464] the “inhibition” value was “significant inhibition of TLR4 by A464 (SEQ ID No. 20) at 1 μM and 5 μM A464 (SEQ ID No. 20) peptide almost completely blocked hTNFα production”.

Reference: US8722052B2, “Vaccinia virus protein A46 peptide and use thereof” (priority 2008, dated 2014)
